Source: publication PMC11649115, “In vitro safety evaluation of dopamine D3R antagonist, R-VK4-116, as a potential medication for the treatment of opioid use disorder” (PLOS ONE, 2024)
Read-outs that look alike come from different tables or passages of the source.

Tests used:
[1] = target: CYP2D6 (Homo sapiens, UniProt P10635); assay: CYP inhibition in human liver microsomes; details: human liver microsomes
[2] = test system: 24 receptor targets; assay: Cellular and nuclear receptor functional assays, agonist and antagonist effect (panel); format: cell-based; details: 10 μM
Protocol: The purpose of this study was to provide a first step in preliminary safety assessments by providing early identification of potential off-target interactions for the optimization of safety margins. This study was conducted by Eurofins Cerep (France) and Eurofins Discovery (St. Charles, MO). R-VK4-116 was tested in enzyme and uptake assay with 10 enzyme targets (Figs 4 and 5 in S1 File), and cellular and nuclear receptor functional assays with 24 receptor targets (Figs 5 and 6 in S1 File). Compound enzyme inhibition effect was calculated as a % inhibition of control enzyme activity. The cellular agonist effect was calculated as a % of the control response to a known reference agonist for each target, and the cellular antagonist effect was calculated as a % inhibition of the control reference agonist response for each target.

[3] = target: T1, SRPK2 (Homo sapiens, UniProt P78362); assay: KINOMEscan binding (% Ctrl, Kd)
T1 construct: made in house; host or cells: E. coli BL21-derived host (T7 phage) or HEK-293
Protocol: (§1) Briefly, E. coli host derived from the BL21 strain were grown to log-phase and infected with kinase-tagged T7 phage and incubated with shaking at 32°C until lysis. The lysates were centrifuged and filtered to remove cell debris. The remaining kinases were produced in HEK-293 cells and subsequently tagged with DNA for qPCR detection. Streptavidin-coated magnetic beads were treated with biotinylated small molecule ligands to generate affinity resins for kinase assays. The liganded beads were blocked with excess biotin and washed to remove unbound ligand and to reduce non-specific phage binding. […] Selectivity Score (S-score) was a quantitative measure of compound selectivity. […] The binding constants (Kds) were also determined with a standard dose-response curve using the Hill equation and Levenberg-Marquardt algorithm [24, 25].

[4] = target: T2, HPK1 (Homo sapiens, UniProt Q92918); assay: KINOMEscan binding (% Ctrl, Kd)
T2 construct: made in house; host or cells: E. coli BL21-derived host (T7 phage) or HEK-293
Protocol: as §1

[5] = target: hERG (Homo sapiens, UniProt Q12809); assay: CiPA IonChannelProfiler Cardiac Panel, QPatch
[6] = Metabolite identification in liver microsomes; format: in vitro ADME; details: 10 μM R-VK4-116, 120 min
Protocol: Reactions were stopped by removing 100 μl aliquots at 120 min and mixing with 200 μl of acetonitrile. Following brief vortexing and centrifugation, the supernatant was transferred to an HPLC vial fitted with a 300 μl glass insert for metabolite analysis using a Sciex 4000QTrap mass spectrometer.

[7] = Metabolic stability in hepatocyte; details: human, hepatocytes in suspension
Protocol: (§2) CYP3A4 substrate Midazolam (10 μM) was prepared and incubated in the same manner. […] In addition, in vitro half-life (t1/2, min) and intrinsic clearance (CLint, μl/min/10^6 cells) were calculated [10, 11].

[8] = test system: human hepatocytes; assay: Metabolic stability in hepatocyte; details: for % remaining Vs T = 0 min: human hepatocytes
Protocol: as §2

[9] = test system: D3R; design: method as in PMID 31526003; details: read-out: antagonist effect on D3R (IC50); cited from earlier work
[10] = test system: 403 non-mutant human kinases; details: screening concentration 1 µM, S-score with % Control <35
Protocol: as §1

[11] = Metabolic stability in liver microsomes; details: rat, pH 7.4
[12] = Metabolic stability in liver microsomes; details: dog, pH 7.4
[13] = test system: cardiovascular effects; details: rats, up to 25 mg/kg ref 9; cited from earlier work
[14] = test system: CYP2B6; assay: CYP induction, in situ catalytic activity, human hepatocytes
From the text: Rifampicin as a positive control and solvent (0.1% DMSO) vehicle control were also included. The acceptance criteria for CYP induction was ≥ 2-fold induction for significant CYP activity, while the acceptance criteria for CYP mRNA was ≥ 4-fold for significant CYP induction.

[15] = 11-point curve 0.001 to 10 μM, read-out: binding constant (Kd)
[16] = Sprague Dawley (rat), Beagle (dog), rat, dog
[17] = heat-inactivated liver microsomes

T2 sequence (Q92918 whole entry): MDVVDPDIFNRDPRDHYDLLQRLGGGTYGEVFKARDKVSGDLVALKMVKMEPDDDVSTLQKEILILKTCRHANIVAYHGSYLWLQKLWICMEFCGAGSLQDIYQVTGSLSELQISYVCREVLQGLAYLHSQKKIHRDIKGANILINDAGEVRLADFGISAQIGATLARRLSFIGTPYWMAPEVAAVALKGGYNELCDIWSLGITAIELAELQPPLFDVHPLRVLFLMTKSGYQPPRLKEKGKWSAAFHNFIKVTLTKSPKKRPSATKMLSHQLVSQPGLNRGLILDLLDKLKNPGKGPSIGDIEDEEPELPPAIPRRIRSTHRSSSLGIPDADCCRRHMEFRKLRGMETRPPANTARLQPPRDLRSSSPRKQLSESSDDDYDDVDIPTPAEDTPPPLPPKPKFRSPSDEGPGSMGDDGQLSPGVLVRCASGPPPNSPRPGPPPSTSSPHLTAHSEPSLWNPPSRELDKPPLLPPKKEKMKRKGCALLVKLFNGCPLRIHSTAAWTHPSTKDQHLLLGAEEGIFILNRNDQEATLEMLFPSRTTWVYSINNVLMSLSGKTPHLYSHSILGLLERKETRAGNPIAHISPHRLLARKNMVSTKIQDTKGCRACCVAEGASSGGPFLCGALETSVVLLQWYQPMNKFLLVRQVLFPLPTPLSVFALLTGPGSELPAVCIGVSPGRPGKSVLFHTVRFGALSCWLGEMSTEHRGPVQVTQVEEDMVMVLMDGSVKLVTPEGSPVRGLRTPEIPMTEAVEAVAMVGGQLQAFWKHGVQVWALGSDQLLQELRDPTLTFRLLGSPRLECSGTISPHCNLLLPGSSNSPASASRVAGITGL
Sequence of CYP2D6 (P10635 whole entry): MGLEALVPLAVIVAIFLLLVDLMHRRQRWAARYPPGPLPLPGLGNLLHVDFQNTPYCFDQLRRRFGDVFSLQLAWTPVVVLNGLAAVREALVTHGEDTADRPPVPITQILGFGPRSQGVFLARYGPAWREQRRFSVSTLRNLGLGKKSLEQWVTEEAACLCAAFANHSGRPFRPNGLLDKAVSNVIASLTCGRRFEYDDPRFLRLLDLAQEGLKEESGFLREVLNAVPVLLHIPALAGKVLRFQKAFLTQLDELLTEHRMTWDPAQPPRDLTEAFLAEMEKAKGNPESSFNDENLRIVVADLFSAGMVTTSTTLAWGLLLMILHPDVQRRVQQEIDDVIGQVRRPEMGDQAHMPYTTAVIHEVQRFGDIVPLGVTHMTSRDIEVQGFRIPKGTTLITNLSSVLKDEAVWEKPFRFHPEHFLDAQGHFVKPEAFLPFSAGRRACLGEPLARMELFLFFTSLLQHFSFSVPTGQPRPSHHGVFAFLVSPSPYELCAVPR
T1 sequence (P78362 whole entry): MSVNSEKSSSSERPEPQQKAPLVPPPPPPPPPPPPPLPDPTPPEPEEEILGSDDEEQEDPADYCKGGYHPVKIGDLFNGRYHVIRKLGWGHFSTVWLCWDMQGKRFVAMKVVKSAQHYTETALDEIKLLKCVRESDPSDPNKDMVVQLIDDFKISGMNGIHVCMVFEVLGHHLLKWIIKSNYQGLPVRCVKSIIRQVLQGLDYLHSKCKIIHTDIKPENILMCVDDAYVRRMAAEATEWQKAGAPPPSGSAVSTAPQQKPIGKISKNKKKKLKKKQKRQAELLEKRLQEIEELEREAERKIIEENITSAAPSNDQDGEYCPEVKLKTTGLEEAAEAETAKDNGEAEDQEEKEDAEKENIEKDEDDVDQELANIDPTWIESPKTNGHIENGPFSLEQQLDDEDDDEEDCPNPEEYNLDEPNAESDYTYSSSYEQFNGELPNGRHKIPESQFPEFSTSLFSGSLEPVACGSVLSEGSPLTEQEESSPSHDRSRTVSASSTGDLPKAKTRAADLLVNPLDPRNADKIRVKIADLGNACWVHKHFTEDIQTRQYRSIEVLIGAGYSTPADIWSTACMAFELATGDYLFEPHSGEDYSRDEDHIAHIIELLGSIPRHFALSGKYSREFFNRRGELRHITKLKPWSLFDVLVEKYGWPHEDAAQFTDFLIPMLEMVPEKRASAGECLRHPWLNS
Sequence of hERG (Q12809 whole entry): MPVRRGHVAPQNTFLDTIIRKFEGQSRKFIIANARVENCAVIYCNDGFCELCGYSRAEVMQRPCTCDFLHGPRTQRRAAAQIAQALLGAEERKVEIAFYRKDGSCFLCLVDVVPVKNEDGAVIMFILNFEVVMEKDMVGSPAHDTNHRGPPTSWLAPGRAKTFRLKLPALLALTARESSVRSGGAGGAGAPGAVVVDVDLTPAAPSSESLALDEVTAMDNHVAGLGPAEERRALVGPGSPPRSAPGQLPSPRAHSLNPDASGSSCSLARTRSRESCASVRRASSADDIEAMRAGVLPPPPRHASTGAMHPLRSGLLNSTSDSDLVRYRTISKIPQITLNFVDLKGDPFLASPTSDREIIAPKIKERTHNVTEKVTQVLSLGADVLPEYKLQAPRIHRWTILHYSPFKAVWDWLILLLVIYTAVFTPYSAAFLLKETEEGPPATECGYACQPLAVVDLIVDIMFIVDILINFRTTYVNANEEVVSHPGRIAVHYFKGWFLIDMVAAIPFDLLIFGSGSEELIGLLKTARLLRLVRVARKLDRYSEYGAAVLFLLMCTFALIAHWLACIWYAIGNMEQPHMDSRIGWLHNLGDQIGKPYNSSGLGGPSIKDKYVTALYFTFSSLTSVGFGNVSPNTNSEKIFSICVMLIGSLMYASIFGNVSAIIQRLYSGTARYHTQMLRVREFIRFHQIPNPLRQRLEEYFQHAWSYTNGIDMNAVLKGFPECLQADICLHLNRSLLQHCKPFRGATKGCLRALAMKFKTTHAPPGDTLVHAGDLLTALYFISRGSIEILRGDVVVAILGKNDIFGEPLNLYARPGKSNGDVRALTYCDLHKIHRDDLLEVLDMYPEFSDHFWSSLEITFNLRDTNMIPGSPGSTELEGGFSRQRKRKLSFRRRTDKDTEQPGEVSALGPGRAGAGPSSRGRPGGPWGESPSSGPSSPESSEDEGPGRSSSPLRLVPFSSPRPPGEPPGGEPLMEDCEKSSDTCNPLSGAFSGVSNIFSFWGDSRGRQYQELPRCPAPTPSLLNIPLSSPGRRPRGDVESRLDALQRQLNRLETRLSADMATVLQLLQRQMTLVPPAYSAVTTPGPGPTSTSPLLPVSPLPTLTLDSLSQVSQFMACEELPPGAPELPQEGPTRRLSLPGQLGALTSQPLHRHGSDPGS

In the case of `CCc1cc(Cl)c(OC)c(N2CCN(CC(O)CCNC(=O)c3cc4ccccc4[nH]3)CC2)c1` (stereo not shown) [R-VK4-116, N-(4-(4-(3-chloro-5-ethyl-2-methoxyphenyl)piperazin-1-yl)-3-hydroxybutyl)-1H-indole-2-carboxamide], the CYP2D6 inhibition ([1]; up to 100 μM) is reported as “did not inhibit CYP significantly”, the activity at 20 min, 0.1 µM ([1]; human, probe bufuralol) is reported as 92.6 ± 9% and the activity at 20 min, 0.3 µM ([1]; human, probe bufuralol) is reported as 86.1 ± 4%. For the same compound, the activity at 20 min, 1 µM ([1]; human, probe bufuralol) was 84.3 ± 3.7%, the activity at 20 min, 3 µM ([1]; human, probe bufuralol) was 92.1 ± 6.8% and the activity at 20 min, 10 µM ([1]; human, probe bufuralol) was 94.7 ± 6.5%. For the same compound, the activity at 20 min, 30 µM ([1]; human, probe bufuralol) was 83.1 ± 1.6%, the activity at 20 min, 60 µM ([1]; human, probe bufuralol) was 84.5 ± 1.8% and the activity at 20 min, 100 µM ([1]; human, probe bufuralol) was 95 ± 7.5%. The “agonist and antagonist effects for most of the targets” value [2] was “did not exhibit agonist and antagonist effects”, the Kd [3, 15] was greater than 10 µM and the remaining binding at 1 µM ([3]; read-out: %Control) was less than 35%. It also gave a remaining binding at 1 µM ([3]; read-out: Gene (S-score with % control): SRPK2) of 21%, a Kd [4, 15] greater than 10 µM and a remaining binding at 1 µM ([4]; read-out: %Control) of less than 35%. It also gave a remaining binding at 1 µM ([4]; read-out: Gene (S-score with % control): HPK1) of 29%, an inhibition at 10 µM ([5]; 10 μM) of 54.6% and an inhibition at 100 µM ([5]; 100 μM) of 82.3%. For the same compound, the inhibition at 10 µM ([5]; ≥10 μM) was 54 to 82%, the “% Area” value ([6]; dog liver microsomes, MRM product ion 116.1) was 10.4% and the “% Area” value ([6]; dog liver microsomes, MRM product ion 144.1) was 28.6%. For the same compound, the “% Area” value ([6]; human liver microsomes, MRM product ion 116.1) was 62.4%, the “% Area” value ([6]; human liver microsomes, MRM product ion 144.1) was 4.1% and the “% Area” value ([6]; rat liver microsomes, MRM product ion 116.1) was 8.2%. The “% Area” value ([6]; rat liver microsomes, MRM product ion 144.1) was 86.1%, the half-life at 0.5 μM [7, 16] was 1.52 to 1.95 h and the half-life at 10 μM [7, 16] was 2.82 to 5.78 h. It also gave a hepatocyte CLint at 0.5 μM [7, 16] of 12 to 16 µL/min/1e6 cells, a hepatocyte CLint at 10 μM [7, 16] of 4 to 8 µL/min/1e6 cells and a half-life at 0.5 μM [7] of 1.95 h. The half-life at 10 μM [7] was 5.63 h, the hepatocyte CLint at 0.5 μM [7] was 11.8 µL/min/1e6 cells and the hepatocyte CLint at 10 μM [7] was 4.1 µL/min/1e6 cells. For the same compound, the “% remaining Vs T = 0 min” value ([8]; 0.5 μM, 0 min) was 100.0%, the “% remaining Vs T = 0 min” value ([8]; 0.5 μM, 30 min) was 89.1% and the “% remaining Vs T = 0 min” value ([8]; 0.5 μM, 60 min) was 78.4%. The “% remaining Vs T = 0 min” value ([8]; 0.5 μM, 90 min) was 65.4%, the “% remaining Vs T = 0 min” value ([8]; 0.5 μM, 120 min) was 48.1% and the “% remaining Vs T = 0 min” value ([8]; 10 μM, 0 min) was 100.0%. The “% remaining Vs T = 0 min” value ([8]; 10 μM, 30 min) was 93.2%, the “% remaining Vs T = 0 min” value ([8]; 10 μM, 60 min) was 85.5% and the “% remaining Vs T = 0 min” value ([8]; 10 μM, 90 min) was 78.9%. For the same compound, the “% remaining Vs T = 0 min” value ([8]; 10 μM, 120 min) was 79.7%, the metabolic stability ([8]; human, rat, or dog hepatocytes, 0.5 and 10 μM) was “metabolically stable” and the IC50 [9] was 0.35 µM. It also gave a Selectivity score [10] of 0.012, a remaining at 0 h, 1 μM [11, 17] of 100% and a remaining at 0 h, 10 μM [11, 17] of 100%. The remaining at 2 h, 1 μM [11, 17] was 94.9%, the remaining at 2 h, 10 μM [11, 17] was 95.4% and the remaining at 0 h, 1 μM ([11]; liver microsomes) was 100%. The remaining at 0 h, 10 μM ([11]; liver microsomes) was 100%, the remaining at 0.5 h, 1 μM ([11]; liver microsomes) was 79.4% and the remaining at 0.5 h, 10 μM ([11]; liver microsomes) was 87.1%. The remaining at 1 h, 1 μM ([11]; liver microsomes) was 56.8%, the remaining at 1 h, 10 μM ([11]; liver microsomes) was 79.7% and the remaining at 1.5 h, 1 μM ([11]; liver microsomes) was 45.5%. The remaining at 1.5 h, 10 μM ([11]; liver microsomes) was 73.3%, the remaining at 2 h, 1 μM ([11]; liver microsomes) was 37.5% and the remaining at 2 h, 10 μM ([11]; liver microsomes) was 69.4%. It also gave a remaining at 0 h, 1 μM [12, 17] of 100%, a remaining at 0 h, 10 μM [12, 17] of 100% and a remaining at 2 h, 1 μM [12, 17] of 90.7%. It also gave a remaining at 2 h, 10 μM [12, 17] of 90.6%, a remaining at 0 h, 1 μM ([12]; liver microsomes) of 100% and a remaining at 0 h, 10 μM ([12]; liver microsomes) of 100%. It also gave a remaining at 0.5 h, 1 μM ([12]; liver microsomes) of 44.6%, a remaining at 0.5 h, 10 μM ([12]; liver microsomes) of 74.3% and a remaining at 1 h, 1 μM ([12]; liver microsomes) of 22.5%. The remaining at 1 h, 10 μM ([12]; liver microsomes) was 64.5%, the remaining at 1.5 h, 1 μM ([12]; liver microsomes) was 22.3% and the remaining at 1.5 h, 10 μM ([12]; liver microsomes) was 55.6%. For the same compound, the remaining at 2 h, 1 μM ([12]; liver microsomes) was 19.7%, the remaining at 2 h, 10 μM ([12]; liver microsomes) was 49.9% and the “potentiation of the cardiovascular effects of cocaine or oxycodone” value [13] was “did not potentiate”. For the same compound, the “Fold of Vehicle Control (CYP2B6 activity, bupropion hydroxylation)” value (from here on “Fold of Vehicle Control”) ([14]; hepatocyte Lot 336, 0.01 µM) was 1.2 fold, the “Fold of Vehicle Control” value ([14]; hepatocyte Lot 336, 0.1 µM) was 1.1 fold and the “Fold of Vehicle Control” value ([14]; hepatocyte Lot 336, 1 µM) was 1.1 fold. For the same compound, the “Fold of Vehicle Control” value ([14]; hepatocyte Lot 336, 3 µM) was 1.1 fold, the “Fold of Vehicle Control” value ([14]; hepatocyte Lot 336, 5 µM) was 1.1 fold and the “Bupropion Hydroxylation” value ([14]; hepatocyte Lot 336, 10 µM) was 0.97 pmol/min/106 cells. The “Fold of Vehicle Control” value ([14]; hepatocyte Lot 336, 10 µM) was 1.1 fold, the “Bupropion Hydroxylation” value ([14]; hepatocyte Lot 348B, 0.01 µM) was 5.0 pmol/min/106 cells and the “Fold of Vehicle Control” value ([14]; hepatocyte Lot 348B, 0.01 µM) was 1.1 fold. For the same compound, the “Bupropion Hydroxylation” value ([14]; hepatocyte Lot 348B, 0.1 µM) was 4.5 pmol/min/106 cells, the “Fold of Vehicle Control” value ([14]; hepatocyte Lot 348B, 0.1 µM) was 1.0 fold and the “Bupropion Hydroxylation” value ([14]; hepatocyte Lot 348B, 1 µM) was 4.5 pmol/min/106 cells. The “Fold of Vehicle Control” value ([14]; hepatocyte Lot 348B, 1 µM) was 1.0 fold, the “Bupropion Hydroxylation” value ([14]; hepatocyte Lot 348B, 3 µM) was 4.1 pmol/min/106 cells and the “Fold of Vehicle Control” value ([14]; hepatocyte Lot 348B, 3 µM) was 0.94 fold. For the same compound, the “Bupropion Hydroxylation” value ([14]; hepatocyte Lot 348B, 5 µM) was 3.8 pmol/min/106 cells, the “Fold of Vehicle Control” value ([14]; hepatocyte Lot 348B, 5 µM) was 0.85 fold and the “Bupropion Hydroxylation” value ([14]; hepatocyte Lot 348B, 10 µM) was 3.9 pmol/min/106 cells. The “Fold of Vehicle Control” value ([14]; hepatocyte Lot 348B, 10 µM) was 0.89 fold, the “Fold of Vehicle Control” value ([14]; hepatocyte Lot 399, 0.01 µM) was 1.0 fold and the “Fold of Vehicle Control” value ([14]; hepatocyte Lot 399, 0.1 µM) was 1.0 fold. The “Fold of Vehicle Control” value ([14]; hepatocyte Lot 399, 1 µM) was 1.1 fold, the “Fold of Vehicle Control” value ([14]; hepatocyte Lot 399, 3 µM) was 1.2 fold and the “Fold of Vehicle Control” value ([14]; hepatocyte Lot 399, 5 µM) was 1.1 fold. The “Fold of Vehicle Control” value ([14]; hepatocyte Lot 399, 10 µM) was 1.1 fold.
